How the values were obtained:
C6 cells = test: Localized chemo-PTT/PDT toxicity, brightfield imaging; type: cell-based, Rat; conditions: 100 μg/mL, 30 min
Experimental: The localized collaborative chemo-phototoxicity of PINPs, in contrast to PNPs, was studied and then visualized using C6 cells. In short, to assess the thermal ablation effect, C6 cells (50,000/well in 6-well dishes) were seeded and cultured in complete media and they were treated with different formulations (100 μg/mL, for 30 min). The used complete growth media containing the formulations was then swapped with new phenol-free media without FBS. For a combined chemo-phototoxicity analysis, the corresponding wells containing cells were exposed to a NIR-808 laser for ~10 min, incubated for an additional 30 min, and subsequently imaged under a brightfield microscope (Olympus BX53; Tokyo, Japan).

C6 glioma cells = test: Scratch wound healing assay (cell migration); type: cell-based, Rat; conditions: 100 μg/mL, 1 h, NIR-808 10 min, 24 h after scraping
Experimental: Scratch wound healing assays of the PNPs, PINPs, and ICG (100 μg/mL) were studied in C6 cells as described previously. This was followed by imaging of the cells which migrated towards the cell-free zone in the scrape at 0 and 24 h, using a brightfield inverted microscope (IX71; Olympus Corp., Tokyo, Japan). The cell migration was analyzed by measuring the dimension of the gap distance using the Adobe Photoshop CC software. The details of the process being used are provided in the Supplementary Materials. […]
nanoparticle’s aqueous solution was monitored and recorded every single min by a digital […]
1.4.5. […]
1.4.6. Scratch Assay of PINPs Determined in C6 Glioma Cells […]
1.4.7. Localized Chemo-phototoxicity of PINPs Determined in C6 Cells
Next, we quantified the synergistic chemo-phototoxicity of PINPs (10 μg/mL) in comparison to other individual moieties [PNPs (chemotherapy) and ICG (phototherapy)] in C6 cells. […]
Following day cells were treated with different formulations for 30 min. […] Cells were incubated for another 24 h and were evaluated by standard MTT assay as described […]
Figure S1. Size distribution profile of self-assembled peptide nanostructures determined in a mixture of HFIP-water at a ratio of 1:19 v/v. […]

Q: How did the “cell death (brightfield images) after NIR-808 exposure” value (C6 cells; NIR-808 ~10 min) turn out when `CC1(C)C(/C=C/C=C/C=C/C=C2\N(CCCCS(=O)(=O)O)c3ccc4ccccc4c3C2(C)C)=[N+](CCCCS(=O)(=O)[O-])c2ccc3ccccc3c21` [ICG, indocyanine green] was run?
A: no cell death

Q: What about the “cell death (brightfield images) in the dark / without NIR-808” value (C6 cells; no laser) of the same molecule?
A: no cell death

Q: What about the wound closure (C6 glioma cells) of the same molecule?
A: ~ 100%

Source: publication PMC9863651, “Anti-Glioma Activity Achieved by Dual Blood–Brain Barrier/Glioma Targeting Naive Chimeric Peptides-Based Co-Assembled Nanophototheranostics” (Pharmaceutics, 2023)
